# Measured values from US20240238242A1, “EGCG buccal tablet and use thereof” (priority 2023, published 2024).
# “And” between values parts separate entries of the source, which are not always exact repeats. Equal entries are not always repeated.
# Tested on: Coronavirus (hCoV-229E)
# Assay: Inactivation efficiency against coronavirus hCoV-229E strain (residual TCID50 on Huh-7 cells)
# Format: cell-based
# Conditions: for CPE test (virus replication in cell wells): wells 1-10; for average inactivation efficiency against virus / inactivation efficiency against the virus: hCoV-229E virus; for average inactivation efficiency against virus: three experiments; for inactivation efficiency against the virus: single experiment
compound,measurement,setting,value
"O=C(O[C@@H]1Cc2c(O)cc(O)cc2O[C@@H]1c1cc(O)c(O)c(O)c1)c1cc(O)c(O)c(O)c1 [EGCG, Epigallocatechin gallate]",CPE test (virus replication in the cell wells),"1 mM EGCG + virus, co-incubated 5 minute, second experiment, dilution factor 10^8, wells 1-10",−
same,CPE test (virus replication in the cell wells),"1 mM EGCG + virus, co-incubated 5 minutes, dilution factor 10^1, wells 1-10, third experiment",+
same,CPE test (virus replication in the cell wells),"1 mM EGCG + virus, co-incubated 5 minutes, dilution factor 10^2, wells 1-10, third experiment",+
same,CPE test (virus replication in the cell wells),"1 mM EGCG + virus, co-incubated 5 minutes, dilution factor 10^3, wells 1-10, third experiment",+
same,CPE test (virus replication in the cell wells),"1 mM EGCG + virus, co-incubated 5 minutes, dilution factor 10^4, wells 1-10, third experiment",+
same,CPE test (virus replication in the cell wells),"1 mM EGCG + virus, co-incubated 5 minutes, dilution factor 10^5, wells 1-10, third experiment",+ and −
same,CPE test (virus replication in the cell wells),"1 mM EGCG + virus, co-incubated 5 minutes, dilution factor 10^6, wells 1-10, third experiment",− and +
same,CPE test (virus replication in the cell wells),"1 mM EGCG + virus, co-incubated 5 minutes, dilution factor 10^7, wells 1-10, third experiment",−
same,CPE test (virus replication in the cell wells),"1 mM EGCG + virus, co-incubated 5 minutes, dilution factor 10^8, wells 1-10, third experiment",−
same,CPE test (virus replication in cell wells),"1 mM EGCG + virus, hCoV-229E co-incubated 1 minute, second experiment, dilution factor 10^1",+
same,CPE test (virus replication in cell wells),"1 mM EGCG + virus, hCoV-229E co-incubated 1 minute, second experiment, dilution factor 10^2",+
same,CPE test (virus replication in cell wells),"1 mM EGCG + virus, hCoV-229E co-incubated 1 minute, second experiment, dilution factor 10^3",+
same,CPE test (virus replication in cell wells),"1 mM EGCG + virus, hCoV-229E co-incubated 1 minute, second experiment, dilution factor 10^4",+ and −
same,CPE test (virus replication in cell wells),"1 mM EGCG + virus, hCoV-229E co-incubated 1 minute, second experiment, dilution factor 10^5",− and +
same,CPE test (virus replication in cell wells),"1 mM EGCG + virus, hCoV-229E co-incubated 1 minute, second experiment, dilution factor 10^6",−
same,CPE test (virus replication in cell wells),"1 mM EGCG + virus, hCoV-229E co-incubated 1 minute, second experiment, dilution factor 10^7",−
same,CPE test (virus replication in cell wells),"1 mM EGCG + virus, hCoV-229E co-incubated 1 minute, second experiment, dilution factor 10^8",−
same,CPE test (virus replication in cell wells),"1 mM EGCG + virus, hCoV-229E co-incubated 1 minute, third experiment, dilution factor 10^1",+
same,CPE test (virus replication in cell wells),"1 mM EGCG + virus, hCoV-229E co-incubated 1 minute, third experiment, dilution factor 10^2",+
same,CPE test (virus replication in cell wells),"1 mM EGCG + virus, hCoV-229E co-incubated 1 minute, third experiment, dilution factor 10^3",+
same,CPE test (virus replication in cell wells),"1 mM EGCG + virus, hCoV-229E co-incubated 1 minute, third experiment, dilution factor 10^4",+
same,CPE test (virus replication in cell wells),"1 mM EGCG + virus, hCoV-229E co-incubated 1 minute, third experiment, dilution factor 10^5",+ and −
same,CPE test (virus replication in cell wells),"1 mM EGCG + virus, hCoV-229E co-incubated 1 minute, third experiment, dilution factor 10^6",− and +
same,CPE test (virus replication in cell wells),"1 mM EGCG + virus, hCoV-229E co-incubated 1 minute, third experiment, dilution factor 10^7",−
same,CPE test (virus replication in cell wells),"1 mM EGCG + virus, hCoV-229E co-incubated 1 minute, third experiment, dilution factor 10^8",−
same,average inactivation efficiency against virus,"1 mM EGCG, 1 minute",49.71%
same,inactivation efficiency against the virus,"1 mM EGCG, 5 minutes",49.88% and 36.90%
same,average inactivation efficiency against virus,"1 mM EGCG, 5 minutes",45.55%
same,CPE test (virus replication in cell wells),"5 mM EGCG + hCoV-229E virus, co-incubated 1 minute, first experiment, dilution factor 10^2",+
same,CPE test (virus replication in cell wells),"5 mM EGCG + hCoV-229E virus, co-incubated 1 minute, first experiment, dilution factor 10^3",+
same,CPE test (virus replication in cell wells),"5 mM EGCG + hCoV-229E virus, co-incubated 1 minute, first experiment, dilution factor 10^4",+
same,CPE test (virus replication in cell wells),"5 mM EGCG + hCoV-229E virus, co-incubated 1 minute, first experiment, dilution factor 10^5",+ and −
same,CPE test (virus replication in cell wells),"5 mM EGCG + hCoV-229E virus, co-incubated 1 minute, first experiment, dilution factor 10^6",−
same,CPE test (virus replication in cell wells),"5 mM EGCG + hCoV-229E virus, co-incubated 1 minute, first experiment, dilution factor 10^7",−
same,CPE test (virus replication in cell wells),"5 mM EGCG + hCoV-229E virus, co-incubated 1 minute, first experiment, dilution factor 10^8",−
same,CPE test (virus replication in the cell wells),"5 mM EGCG + virus, co-incubated 5 minute, first experiment, dilution factor 10^2, wells 1-10",+
same,CPE test (virus replication in the cell wells),"5 mM EGCG + virus, co-incubated 5 minute, first experiment, dilution factor 10^3, wells 1-10",+
same,CPE test (virus replication in the cell wells),"5 mM EGCG + virus, co-incubated 5 minute, first experiment, dilution factor 10^4, wells 1-10",+
same,CPE test (virus replication in the cell wells),"5 mM EGCG + virus, co-incubated 5 minute, first experiment, dilution factor 10^5, wells 1-10",− and +
same,CPE test (virus replication in the cell wells),"5 mM EGCG + virus, co-incubated 5 minute, first experiment, dilution factor 10^6, wells 1-10",−
same,CPE test (virus replication in the cell wells),"5 mM EGCG + virus, co-incubated 5 minute, first experiment, dilution factor 10^7, wells 1-10",−
same,CPE test (virus replication in the cell wells),"5 mM EGCG + virus, co-incubated 5 minute, first experiment, dilution factor 10^8, wells 1-10",−
same,CPE test (virus replication in the cell wells),"5 mM EGCG + virus, co-incubated 5 minute, second experiment, dilution factor 10^2, wells 1-10",+
same,CPE test (virus replication in the cell wells),"5 mM EGCG + virus, co-incubated 5 minute, second experiment, dilution factor 10^3, wells 1-10",+
same,CPE test (virus replication in the cell wells),"5 mM EGCG + virus, co-incubated 5 minute, second experiment, dilution factor 10^4, wells 1-10",+
same,CPE test (virus replication in the cell wells),"5 mM EGCG + virus, co-incubated 5 minute, second experiment, dilution factor 10^5, wells 1-10",− and +
same,CPE test (virus replication in the cell wells),"5 mM EGCG + virus, co-incubated 5 minute, second experiment, dilution factor 10^6, wells 1-10",− and +
same,CPE test (virus replication in the cell wells),"5 mM EGCG + virus, co-incubated 5 minute, second experiment, dilution factor 10^7, wells 1-10",−
same,CPE test (virus replication in the cell wells),"5 mM EGCG + virus, co-incubated 5 minute, second experiment, dilution factor 10^8, wells 1-10",−
same,CPE test (virus replication in the cell wells),"5 mM EGCG + virus, co-incubated 5 minutes, dilution factor 10^1, wells 1-10, third experiment",+
same,CPE test (virus replication in the cell wells),"5 mM EGCG + virus, co-incubated 5 minutes, dilution factor 10^2, wells 1-10, third experiment",+
same,CPE test (virus replication in the cell wells),"5 mM EGCG + virus, co-incubated 5 minutes, dilution factor 10^3, wells 1-10, third experiment",+
same,CPE test (virus replication in the cell wells),"5 mM EGCG + virus, co-incubated 5 minutes, dilution factor 10^4, wells 1-10, third experiment",+
same,CPE test (virus replication in the cell wells),"5 mM EGCG + virus, co-incubated 5 minutes, dilution factor 10^5, wells 1-10, third experiment",+ and −
same,CPE test (virus replication in the cell wells),"5 mM EGCG + virus, co-incubated 5 minutes, dilution factor 10^6, wells 1-10, third experiment",− and +
same,CPE test (virus replication in the cell wells),"5 mM EGCG + virus, co-incubated 5 minutes, dilution factor 10^7, wells 1-10, third experiment",−
same,CPE test (virus replication in the cell wells),"5 mM EGCG + virus, co-incubated 5 minutes, dilution factor 10^8, wells 1-10, third experiment",−
same,CPE test (virus replication in cell wells),"5 mM EGCG + virus, hCoV-229E co-incubated 1 minute, second experiment, dilution factor 10^2",+
same,CPE test (virus replication in cell wells),"5 mM EGCG + virus, hCoV-229E co-incubated 1 minute, second experiment, dilution factor 10^3",+ and −
same,CPE test (virus replication in cell wells),"5 mM EGCG + virus, hCoV-229E co-incubated 1 minute, second experiment, dilution factor 10^4",+
same,CPE test (virus replication in cell wells),"5 mM EGCG + virus, hCoV-229E co-incubated 1 minute, second experiment, dilution factor 10^5",− and +
same,CPE test (virus replication in cell wells),"5 mM EGCG + virus, hCoV-229E co-incubated 1 minute, second experiment, dilution factor 10^6",−
same,CPE test (virus replication in cell wells),"5 mM EGCG + virus, hCoV-229E co-incubated 1 minute, second experiment, dilution factor 10^7",−
same,CPE test (virus replication in cell wells),"5 mM EGCG + virus, hCoV-229E co-incubated 1 minute, second experiment, dilution factor 10^8",−
same,CPE test (virus replication in cell wells),"5 mM EGCG + virus, hCoV-229E co-incubated 1 minute, third experiment, dilution factor 10^2",+
same,CPE test (virus replication in cell wells),"5 mM EGCG + virus, hCoV-229E co-incubated 1 minute, third experiment, dilution factor 10^3",+
same,CPE test (virus replication in cell wells),"5 mM EGCG + virus, hCoV-229E co-incubated 1 minute, third experiment, dilution factor 10^4",+
same,CPE test (virus replication in cell wells),"5 mM EGCG + virus, hCoV-229E co-incubated 1 minute, third experiment, dilution factor 10^5",+ and −
same,CPE test (virus replication in cell wells),"5 mM EGCG + virus, hCoV-229E co-incubated 1 minute, third experiment, dilution factor 10^6",− and +
same,CPE test (virus replication in cell wells),"5 mM EGCG + virus, hCoV-229E co-incubated 1 minute, third experiment, dilution factor 10^7",−
same,CPE test (virus replication in cell wells),"5 mM EGCG + virus, hCoV-229E co-incubated 1 minute, third experiment, dilution factor 10^8",−
same,inactivation efficiency against the virus,"5 mM EGCG, 1 minute",68.38% and 49.88%
same,average inactivation efficiency against virus,"5 mM EGCG, 1 minute",62.21%
same,inactivation efficiency against the virus,"5 mM EGCG, 5 minutes",60.19% and 36.90% and 49.88%
same,average inactivation efficiency against virus,"5 mM EGCG, 5 minutes",48.99%
